# Source: US11180504B2 (ORCHID PHARMA LTD., priority 2016, dated 2021)
# Like-named read-outs stand apart in the source and are kept apart here.
# Experiments:
# [1] = test system: carbapenem sensitive Pseudomonas aeruginosa; test: MIC by broth micro-dilution (CLSI), carbapenem sensitive P. aeruginosa; type: cell-based; details: Pseudomonas aeruginosa, ATCC27853, Meropenem susceptible P. aeruginosa ATCC27853; read-out: MIC
# [2] = test system: carbapenem sensitive Escherichia coli; test: MIC by broth micro-dilution (CLSI), carbapenem sensitive E. coli; type: cell-based; details: Escherichia coli, ATCC25922, ESBL −ve E. coli ATCC25922; read-out: MIC
# [3] = test system: carbapenemase producing K. pneumoniae; test: MIC by broth micro-dilution (CLSI), carbapenemase producing K. pneumoniae; type: cell-based, Klebsiella pneumoniae; details: Klebsiella pneumoniae
# [4] = test system: methicillin-sensitive Staphylococcus aureus; test: MIC by broth micro-dilution (CLSI), methicillin-sensitive S. aureus; type: cell-based; details: Staphylococcus aureus, ATCC 29213 / MSSA, MSSA S. aureus ATCC29213; read-out: MIC
# [5] = ATCCBAA1705, KPC-2 K. pneumoniae ATCC BAA-1705, read-out: MIC
MIC [1],MIC [2],"MIC [3, 5]",MIC [4],SMILES,MIC ([3]; ATCCBAA1705)
4 mg/L,0.125 mg/L,1 mg/L,4 mg/L,"C[C@@H](NC(=O)Cn1cnnn1)[C@H]1C(=O)N2C(C(=O)O)=C(S[C@@H]3CN[C@H](C(=O)N4C[C@@H](O)[C@H](O)C4)C3)[C@H](C)[C@H]12 [Example 396, (4R,5S,6R)-6-((R)-1-(2-(1H-tetrazol-1-yl)acetamido)ethyl)-3-((3S,5S)-5-((3R,4R)-3,4-dihydroxypyrrolidine-1-carbonyl)pyrrolidin-3-ylthio)-methyl-7-oxo-1-azabicyclo[3.2.0]hept-2-ene-2-carboxylic acid]",–
2 mg/L,0.25 mg/L,1 mg/L,4 mg/L,"C[C@@H](NC(=O)Cn1cnnn1)[C@H]1C(=O)N2C(C(=O)O)=C(S[C@@H]3CN[C@H](C(=O)N4CC[C@@H](NC(=O)CN)C4)C3)[C@H](C)[C@H]12 [Example 398, (4R,5S,6R)-6-((R)-1-(2-(1H-tetrazol-1-yl)acetamido)ethyl)-3-((3S,5S)-5-((R)-3-(2-aminoacetamido)pyrrolidine-1-carbonyl)pyrrolidin-3-ylthio)-4-methyl-7-oxo-1-azabicyclo[3.2.0]hept-2-ene-2-carboxylic acid]",–
8 mg/L,0.125 mg/L,2 mg/L,2 mg/L,"C[C@@H](NC(=O)Cn1cnnn1)[C@H]1C(=O)N2C(C(=O)O)=C(S[C@@H]3CN[C@H](C(=O)N4CC[C@@H](NC(=N)N)C4)C3)[C@H](C)[C@H]12 [Example 399, (4R,5S,6R)-6-((R)-1-(2-(1H-tetrazol-1-yl)acetamido)ethyl)-3-((3S,5S)-5-((R)-3-guanidinopyrrolidine-1-carbonyl)pyrrolidin-3-ylthio)-4-methyl-7-oxo-1-azabicyclo[3.2.0]hept-2-ene-2-carboxylic acid]",–
1 mg/L,0.125 mg/L,1 mg/L,4 mg/L,"C[C@@H](NC(=O)Cn1cnnn1)[C@H]1C(=O)N2C(C(=O)O)=C(S[C@@H]3CN[C@H](C(=O)N4C[C@@H](N)[C@@H](O)C4)C3)[C@H](C)[C@H]12 [Example 400, (4R,5S,6R)-6-((R)-1-(2-(1H-tetrazol-1-yl)acetamido)ethyl)-3-((3S,5S)-5-((3R,4S)-3-amino-4-hydroxypyrrolidine-1-carbonyl)pyrrolidin-3-ylthio)-4-methyl-7-oxo-1-azabicyclo[3.2.0]hept-2-ene-2-carboxylic acid]",–
2 mg/L,0.5 mg/L,2 mg/L,8 mg/L,"C[C@@H](NC(=O)Cn1cnnn1)[C@H]1C(=O)N2C(C(=O)O)=C(S[C@@H]3CN[C@H](C(=O)N4CC[C@@H](NCCN)C4)C3)[C@H](C)[C@H]12 [Example 401, (4R,5S,6R)-6-((R)-1-(2-(1H-tetrazol-1-yl)acetamido)ethyl)-3-((3S,5S)-5-((R)-3-(2-aminoethylamino)pyrrolidine-1-carbonyl)pyrrolidin-3-ylthio)-4-methyl-7-oxo-1-azabicyclo[3.2.0]hept-2-ene-2-carboxylic acid]",–
32 mg/L,0.06 mg/L,1 mg/L,1 mg/L,"C[C@@H](NC(=O)Cn1cnnn1)[C@H]1C(=O)N2C(C(=O)O)=C(S[C@@H]3CN[C@H](C(=O)Nc4ccncc4)C3)[C@H](C)[C@H]12 [Example 402, (4R,5S,6R)-6-((R)-1-(2-(1H-tetrazol-1-yl)acetamido)ethyl)-4-methyl-7-oxo-3-((3S,5S)-5-(pyridin-4-ylcarbamoyl)pyrrolidin-3-ylthio)-1-azabicyclo[3.2.0]hept-2-ene-2-carboxylic acid]",–
16 mg/L,0.5 mg/L,8 mg/L,4 mg/L,"C[C@@H](NC(=O)Cn1nnnc1C(=O)O)[C@H]1C(=O)N2C(C(=O)O)=C(S[C@@H]3CN[C@H](C(=O)N4CC[C@@H](N)C4)C3)[C@H](C)[C@H]12 [Example 403, (4R,5S,6R)-3-((3S,5S)-5-((R)-3-aminopyrrolidine-1-carbonyl)pyrrolidin-3-ylthio)-6-((R)-1-(2-(5-carboxy-1H-tetrazol-1-yl)acetamido)ethyl)-4-methyl-7-oxo-1-azabicyclo[3.2.0]hept-2-ene-2-carboxylic acid]",–
1 mg/L,0.25 mg/L,0.5 mg/L,1 mg/L,"C[C@@H](NC(=O)Cn1cnnn1)[C@H]1C(=O)N2C(C(=O)O)=C(S[C@@H]3CN[C@H](C(=O)N4CCC(CN)CC4)C3)[C@H](C)[C@H]12 [Example 404, (4R,5S,6R)-6-((R)-1-(2-(1H-tetrazol-1-yl)acetamido)ethyl)-3-((3S,5S)-5-(4-(aminomethyl)piperidine-1-carbanoyl)pyrrolidin-3-ylthio)-4-methyl-7-oxo-1-azabicyclo[3.2.0]hept-2-ene-2-carboxylic acid]",–
4 mg/L,0.125 mg/L,2 mg/L,4 mg/L,"C[C@@H](NC(=O)Cn1cnnn1)[C@H]1C(=O)N2C(C(=O)O)=C(S[C@@H]3CN[C@H](C(=O)N4CC(C)(N)C4)C3)[C@H](C)[C@H]12 [Example 405, (4R,5S,6R)-6-((R)-1-(2-(1H-tetrazol-1-yl)acetamido)ethyl)-3-((3S,5S)-5-(3-amino-3-methylazetidine-1-carbonyl)pyrrolidin-3-ylthio)-4-methyl-7-oxo-1-azabicyclo[3.2.0]hept-2-ene-2-carboxylic acid]",–
16 mg/L,0.25 mg/L,2 mg/L,4 mg/L,"C[C@@H](NC(=O)Cn1cnnn1)[C@H]1C(=O)N2C(C(=O)O)=C(S[C@@H]3CN[C@H](C(=O)N4CCN([C@H]5CCNC5)CC4)C3)[C@H](C)[C@H]12 [Example 406, (4R,5S,6R)-6-((R)-1-(2-(1H-tetrazol-1-yl)acetamido)ethyl)-4-methyl-7-oxo-3-((3S,5S)-5-(4-((S)-pyrrolidin-3-yl]piperazine-1-carbonyl]pyrrolidin-3-ylthio)-1-azabicyclo[3.2.0]hept-2-ene-2-carboxylic acid]",–
8 mg/L,0.5 mg/L,1 mg/L,2 mg/L,"C[C@@H](NC(=O)Cn1cnnn1)[C@H]1C(=O)N2C(C(=O)O)=C(SC3CNC3)[C@H](C)[C@H]12 [Example 407, (4R,5S,6R)-6-((R)-1-(2-(1H-tetrazol-1-yl)acetamido)ethyl)-3-(azetidin-3-ylthio)-4-methyl-7-oxo-1-azabicyclo[3.2.0]hept-2-ene-2-carboxylic acid]",–
2 mg/L,1 mg/L,2 mg/L,4 mg/L,"C[C@@H](NC(=O)Cn1cnnn1)[C@H]1C(=O)N2C(C(=O)O)=C(S[C@@H]3CN[C@H](C(=O)N4CCN(C5CNC5)CC4)C3)[C@H](C)[C@H]12 [Example 408, (4R,5S,6R)-6-((R)-1-(2-(1H-tetrazol-1-yl)acetamido)ethyl)-3-((3S,5S)-5-(4-(azetidin-3-yl)piperazine-1-carbonyl)pyrrolidin-3-ylthio)-4-methyl-7-oxo-1-azabicyclo[3.2.0]hept-2-ene-2-carboxylic acid]",–
4 mg/L,1 mg/L,2 mg/L,4 mg/L,"C[C@@H](NC(=O)Cn1cnnn1)[C@H]1C(=O)N2C(C(=O)O)=C(S[C@@H]3CN[C@H](C(=O)N4CCC(N5CC[C@@H](N)C5)CC4)C3)[C@H](C)[C@H]12 [Example 409, (4R,5S,6R)-6-((R)-1-(2-(1H-tetrazol-1-yl)acetamido)ethyl)-3-((3S,5S)-5-(4-((R)-3-aminopyrrolidin-1-yl)piperidine-1-carbonyl)pyrrolidin-3-ylthio)-4-methyl-7-oxo-1-azabicyclo[3.2.0]hept-2-ene-2-carboxylic acid]",–
4 mg/L,0.5 mg/L,4 mg/L,2 mg/L,"C[C@@H](NC(=O)Cn1cnnn1)[C@H]1C(=O)N2C(C(=O)O)=C(S[C@@H]3CN[C@H](C(=O)N4CC[C@@H](N(C)C)C4)C3)[C@H](C)[C@H]12 [Example 410, (4R,5S,6R)-6-((R)-1-(2-(1H-tetrazol-1-yl)acetamido)ethyl)-3-((3S,5S)-5-((R)-3-(dimethylamino)pyrrolidine-1-carbonyl)pyrrolidin-3-ylthio)-4-methyl-7-oxo-1-azabicyclo[3.2.0]hept-2-ene-2-carboxylic acid]",–
1 mg/L,0.25 mg/L,1 mg/L,2 mg/L,"C[C@@H]1C[C@H](N)CN1C(=O)[C@@H]1C[C@H](SC2=C(C(=O)O)N3C(=O)[C@H]([C@@H](C)NC(=O)Cn4cnnn4)[C@H]3[C@H]2C)CN1 [Example 411, (4R,5S,6R)-6-((R)-1-(2-(1H-tetrazol-1-yl)acetamido)ethyl)-3-((3S,5S)-5-((2R,4S)-4-amino-2-methylpyrrolidine-1-carbonyl)pyrrolidin-3-ylthio)-4-methyl-7-oxo-1-azabicyclo[3.2.0]hept-2-ene-2-carboxylic acid]",–

SMILES,MIC [1],MIC [2],"MIC [3, 5]",MIC [4],MIC ([3]; ATCCBAA1705)
"C[C@@H](NC(=O)Cn1cnnn1)[C@H]1C(=O)N2C(C(=O)O)=C(S[C@@H]3CN[C@H](C(=O)N4CCC5(CC6CCC(C5)N6)C4)C3)[C@H](C)[C@H]12 (stereo partly drawn) [Example 397, (4R,5S,6R)-6-((R)-1-(2-(1H-tetrazol-1-yl)acetamido)ethyl)-3-((3S,5S)-5-(8-azaspiro[bicyclo[3.2.1]octane-3,3′-pyrrolidine]-1′-ylcarbonyl)pyrrolidin-3-ylthio)-4-methyl-7-oxo-1-azabicyclo[3.2.0]hept-2-ene-2-carboxylic acid]",2 mg/L,0.25 mg/L,–,2 mg/L,1 mg/L
